The nature of data set [1]: Photostability (HPLC, solar simulator irradiation). Type of data set: physicochemical. The settings on record: percentage of degradation after 6 h irradiation with solar simulator; 100 ppm in extracellular solution pH 7.4. As to the method: (§1) In order to study the solution stability and photostability of the potassium channel modulators object of the present invention, a stock solution of the proper analyte (1 mg/mL) in dimethylsulfoxide (DMSO) has been prepared. This solution has been then diluted to a concentration of 100 ppm using extracellular solution containing (in mM): 138 NaCl, 2 CaCl2, 5.4 KCl, 1 MgCl2, 10 glucose, and 10 HEPES, at pH 7.4, adjusted with NaOH. To measure solution stability, the diluted solutions have been maintained at ambient temperature for 6 h. To measure photostability, the diluted solutions have been irradiated for 6 h using a Oriel Sol3A Solar Simulator (Newport corporation, Irvine, CA, USA) with a 12x12 inches output beam. Aliquots of solution have been withdrawn after 6h and analyzed by HPLC using a Kinetex C18, 150 mm × 4.6 mm × 2.6 µm (Phenomenex, Bologna, Italy) as stationary phase and a mobile phase constituted by A: H2O/CH3CN (80:20) and B: CH3CN. Gradient elution has been performed from 20% to 90% of B in 7.50 minutes and from 90% to 20% of B in 1 minute. The pump flux has been set to 1.5 mL/min. Column has been thermostatted at 40°C during analysis. Results are espressed in Table 3 as percentage of degradation of the product calculated as ratio between the peak area of the analyte at time 0 (Pa0) and after 6h (Pa6) using the following formula: % degradation = (Pa0−Pa6)/Pa0 *100. [formula]

Data set [2] in a line: Solution stability (HPLC, extracellular solution, ambient temperature). Type of data set: physicochemical. Particulars: percentage of degradation after 6 h at ambient temperature; 100 ppm in extracellular solution pH 7.4. As to the method: as §1
The target in another data set is T1, Kv7.2 (Homo sapiens, UniProt O43526).
T1 construct: expressed in transfected cells; host or cells: CHO cells (ATCC CRL-9618), transient transfection, pcDNA3.1(+)
Kind of data set: Whole-cell patch-clamp on CHO cells transiently expressing Kv7.2. Type of data set: cell-based. Particulars: CHO cells, mean±SEM, >1 activating, <1 inhibiting; for Idrug/Ictl at 0 mV: ratio of ramp-evoked Kv7.2 current amplitude in presence and absence of drug at 0 mV; for Idrug/Ictl at -40 mV: ratio of ramp-evoked Kv7.2 current amplitude in presence and absence of drug at -40 mV. As to the method:
According to the experimental protocol, these plasmids were expressed individually or in combination (in particular of Kv7.2 and Kv7.3), together with a plasmid-expressing enhanced green fluorescent protein (Clontech, Palo Alto, CA) used as a transfection marker. Total cDNA in the transfection mixture was kept at 4 µg. CHO cells were grown in 100-mm plastic Petri dishes in Dulbecco's modified Eagle's medium containing 10% fetal bovine serum, nonessential amino acids (0.1 mM), penicillin (50 U/ml), and streptomycin ([…]) in a humidified atmosphere at 37°C with 5% CO2. The cells were plated on glass coverslips coated with poly-L-lysine, and transfected one day after plating with the appropriate cDNA using Lipofectamine 2000 (Life Technologies), according to the manufacturer's protocol.
Currents from CHO cells were recorded at room temperature (20-22°C) 24 hours after trasfection using the whole-cell configuration of the patch-clamp technique, with glass micropipettes of 3-5 MΩ resistance. During the recording, constant perfusion of extracellular solution was maintained. The extracellular solution contained (in mM): 138 NaCl, 2 CaCl2, 5.4 KCl, 1 MgCl2, 10 glucose, and 10 HEPES, at pH 7.4, adjusted with NaOH. The pipette (intracellular) solution contained (in mM): 140 KCl, 2 MgCl2, 10 EGTA, 10 HEPES, 5 Mg^2+-ATP, at pH 7.3-7.4, adjusted with KOH. Currents were recorded using an Axopatch-200A amplifier, filtered at 5 kHz, and digitized using a DigiData 1440A (Molecular Devices). The pCLAMP software (version 10.2, Molecular Devices) was used for data acquisition and analysis. To evaluate the activity of exemplary compounds on Kv7.2 (see Table 1), as well as on Kv7.1, Kv7.2/7.3, Kv7.3 and Kv7.4 channels for selected compounds (see Table 2), the cells were clamped at -80 mV and currents were elicited by 3-s voltage ramps from -80 mV to +20 mV in the presence and absence of each compound. […] The effects of drugs were expressed as shift in the ramp-voltage (ΔV) calculated at 20% of the maximal current (Miceli et al, Proc Natl Acad Sci U S A. 2013, 110(11):4386-91). Curves were fitted using the following equation: y=max/(1+x/EC50)n, where x is the drug concentration, n is the Hill coefficient and max is the maximal value achieved, as previously described (Ambrosino et al, Br J Pharmacol. 2013, 168(6):1430-1444). Data analysis and fit were performed using Sigmaplot (version 12.3).
Ramp-evoked Kv7.2 currents were analyzed by measuring the currents at -40 mV (a membrane potential value close to the activation threshold) and at 0 mV (a membrane potential value at which Kv7.2 conductance is largely saturated). In particular, -40 mV represents the threshold potential for spike initiation and 0 mV represents instead the membrane potential value at which maximal conductance of the channel is achieved.
In Table 1, the effect of exemplary compounds of the invention is expressed as the ratio between current amplitude in the presence (Idrug) and absence (Ictl) of the drug at these two membrane voltages. […]

Consider `CCOC(=O)Nc1ccc2c(c1)CCN2Cc1ccc(F)cc1` [ethyl (1-(4-fluorobenzyl)indolin-5-yl)carbamate], for which, in data set [1], the Photostability result is “C (degradation > 40%)”. For the same compound, the Solution stability entry in data set [2] is listed as “A (degradation lower than 20%)”. In addition, on Kv7.2, the “Idrug/Ictl at 0 mV” value is 1.26±0.13 and the “Idrug/Ictl at -40 mV” value was determined as 2.01±0.58.
The corresponding values for `O=S(=O)(Nc1ccc2c(c1)CCN2Cc1ccc(C(F)(F)F)cc1C(F)(F)F)C1CCCCC1` [N-(1-(2,4-bis(trifluoromethyl)benzyl)indolin-5-yl)cyclohexanesulfonamide] are “C (degradation > 40%)”, “B (20%< degradation<40%)”, 1.22±0.11 and 1.53±0.39.
The corresponding values for `COc1ccc(CN2c3ccc(NS(=O)(=O)C4CCCCC4)cc3CC2C)cc1` (stereo not shown) [N-(1-(4-methoxybenzyl)-2-methylindolin-5-yl)cyclohexanesulfonamide] are “C (degradation > 40%)”, “B (20%< degradation<40%)”, 0.92±0.13 and 1.13±0.15.
Taken in the same sequence, the figures for `COc1ccc(CN2CCc3cc(NS(=O)(=O)C4CCCCC4)ccc32)cc1` [N-(1-(4-methoxybenzyl)indolin-5-yl)cyclohexanesulfonamide] were “C (degradation > 40%)”, “C (degradation > 40%)”, 4.24±0.83 and 6.43±1.51.
With `O=S(=O)(CCC1CCCCC1)Nc1ccc2c(ccn2Cc2ccc(F)cc2)c1` [2-cyclohexyl-N-(1-(4-fluorobenzyl)-1H-indol-5-yl)ethane-1-sulfonamide], the Photostability entry in data set [1] was “A (degradation lower than 20%)”. Also, the Solution stability result in data set [2] is “A (degradation lower than 20%)”. Also, on Kv7.2, the “Idrug/Ictl at 0 mV” value was found to be 1.18±0.09 and the “Idrug/Ictl at -40 mV” value was found to be 1.64±0.10.
With `O=S(=O)(Nc1ccc2c(c1)CCN2CCc1ccc(F)cc1)C1CCCCC1` [N-(1-(4-fluorophenethyl)indolin-5-yl)cyclohexanesulfonamide], the Photostability entry in data set [1] is given as “C (degradation > 40%)”. Moreover, the Solution stability result in data set [2] is reported as “C (degradation > 40%)”. On Kv7.2, the “Idrug/Ictl at 0 mV” value was found to be 1.37±0.17 and the “Idrug/Ictl at -40 mV” value was found to be 3.24±1.52.
For the compound `O=S(=O)(Nc1ccc2c(ccn2Cc2ccc(F)cc2)c1)C1CCCCC1` [N-(1-(4-fluorobenzyl)-1H-indol-5-yl)cyclohexanesulfonamide], in data set [1], the Photostability entry is “A (degradation lower than 20%)”. Besides, the Solution stability entry in data set [2] is recorded as “A (degradation lower than 20%)”. In addition, at Kv7.2, the “Idrug/Ictl at 0 mV” value is on record as 2.76±0.19 and the “Idrug/Ictl at -40 mV” value is recorded as 4.71±1.31.
`CCCCCCC(=O)Nc1ccc(NCc2ccc(OC(F)(F)F)cc2)cc1N` [N-(2-amino-4-((4-(trifluoromethoxy)benzyl)amino)phenyl)heptanamide]: the Photostability entry in data set [1] is “B (20%< degradation<40%)”. In addition, the Solution stability entry in data set [2] is given as “A (degradation lower than 20%)”. At Kv7.2, the “Idrug/Ictl at 0 mV” value turned out to be 2.05±0.56 and the “Idrug/Ictl at -40 mV” value is 12.4±2.05.
The corresponding values for `O=C(Nc1ccc2c(c1)CCN2Cc1ccc(F)cc1)NC1CCCCC1` [1-cyclohexyl-3-(1-(4-fluorobenzyl)indolin-5-yl)urea] are “B (20%< degradation<40%)”, “A (degradation lower than 20%)”, 0.85±0.12 and 0.95±0.16.
The corresponding values for `O=S(=O)(Nc1ccc2c(c1)CCN2Cc1ccc(F)cc1)N1CCCCCC1` [N-(1-(4-fluorobenzyl)indolin-5-yl)azepane-1-sulfonamide] are “B (20%< degradation<40%)”, “B (20%< degradation<40%)”, 0.98±0.11 and 0.89±0.12.
Taken in the same sequence, the figures for `O=S(=O)(Nc1ccc2c(c1)CCN2Cc1ccc(F)c(F)c1)C1CCCCC1` [N-(1-(3,4-difluorobenzyl)indolin-5-yl)cyclohexanesulfonamide] were “C (degradation > 40%)”, “C (degradation > 40%)”, 2.11±0.18 and 4.56±1.11.
For `CC1CC(C)CN(S(=O)(=O)Nc2ccc3c(c2)CCN3Cc2ccc(F)cc2)C1` (stereo not shown) [N-(1-(4-fluorobenzyl)indolin-5-yl)-3,5-dimethylpiperidine-1-sulfonamide], the Photostability result in data set [1] is on record as “B (20%< degradation<40%)”. Besides, the Solution stability entry in data set [2] was “B (20%< degradation<40%)”. Also, on Kv7.2, the “Idrug/Ictl at 0 mV” value is on record as 1.87±0.22 and the “Idrug/Ictl at -40 mV” value was found to be 1.91±0.44.
In the case of `CC(C)(C)CNC(=N)Nc1ccc2c(c1)CCN2Cc1ccc(F)cc1` [1-(1-(4-fluorobenzyl)indolin-5-yl)-3-neopentylguanidine], in data set [1], the Photostability entry was “B (20%< degradation<40%)”. Also, the Solution stability entry in data set [2] is recorded as “A (degradation lower than 20%)”. Besides, on Kv7.2, the “Idrug/Ictl at 0 mV” value was found to be 0.84±0.09 and the “Idrug/Ictl at -40 mV” value amounted to 0.98±0.09.
The corresponding values for `O=S(=O)(Nc1ccc2c(c1)CCN2Cc1ccc(F)cc1F)C1CCCCC1` [N-(1-(2,4-difluorobenzyl)indolin-5-yl)cyclohexanesulfonamide] are “C (degradation > 40%)”, “C (degradation > 40%)”, 3.79±1.09 and 5.82±1.38.
For `COCCOCCC(=O)Nc1ccc2c(ccn2Cc2ccc(C(F)(F)F)cc2)c1` [3-(2-methoxyethoxy)-N-(1-(4-(trifluoromethyl)benzyl)-1H-indol-5-yl)propanamide], the Photostability result in data set [1] is recorded as “A (degradation lower than 20%)”. Further, in data set [2], the Solution stability entry was “A (degradation lower than 20%)”. Moreover, on Kv7.2, the “Idrug/Ictl at 0 mV” value was found to be 1.34±0.10 and the “Idrug/Ictl at -40 mV” value was 2.64±0.77.
For the compound `CC(C)CS(=O)(=O)Nc1ccc2c(c1)CCN2Cc1ccc(F)cc1` [N-(1-(4-fluorobenzyl)indolin-5-yl)-2-methylpropane-1-sulfonamide], in data set [1], the Photostability entry is reported as “C (degradation > 40%)”. Moreover, the Solution stability result in data set [2] is “C (degradation > 40%)”. Further, at Kv7.2, the “Idrug/Ictl at 0 mV” value is reported as 1.93±0.32 and the “Idrug/Ictl at -40 mV” value is 2.55±0.79.

Source of the values: patent EP3917907B1, “MODULATORS OF POTASSIUM ION CHANNELS AND USES THEREOF” (Universitá Degli Studi Di Salerno, priority 2019, dated 2020).
